Measurements published in US20260083865A1, “PROSTATE SPECIFIC MEMBRANE ANTIGEN (PSMA) LIGANDS AND USE THEREOF” (priority 2022, published 2026).
Numbered stars: 1 amine (or outer) side, 2 acyl side, 3 side chain; on linkers, the order of the positions; unused ones are H or OH. Bridge positions count the residues as written; N and C are the ends. Square brackets hold non-standard residues; d marks the D form. Peptide text beside a SMILES is read from it. * marks the point of attachment. X7 = O=C(O)CN1CCN(CC(=O)O)CCN(CC(=O)NC2CCN(CC(=O)*)CC2)CCN(CC(=O)O)CC1; DOTA = O=C(O)CN1CCN(CC(=O)O)CCN(CC(=O)*)CCN(CC(=O)O)CC1; Trp(5-Br) = N[C@@H](Cc1c[nH]c2ccc(Br)cc12)C(=O)O; X13 = C/N=C(/NC)N(C)CCC[C@H](N[*:1])C(=O)[*:2]; Phe(3-Cl) = N[C@@H](Cc1cccc(Cl)c1)C(=O)O; Phe(4-Cl) = N[C@@H](Cc1ccc(Cl)cc1)C(=O)O; Arg(Me) = CNC(=N)NCCC[C@H](N)C(=O)O; X1 = O=C(CC1CCN([*:1])CC1)[*:2]; Cit = NC(=O)NCCC[C@H](N)C(=O)O; Lys(Me) = CNCCCC[C@H](N)C(=O)O; dTle = CC(C)(C)[C@@H](N)C(=O)O; αMeD = C[C@](N)(CC(=O)O)C(=O)O; Tle = CC(C)(C)[C@H](N)C(=O)O; Isovaleryl = CC(C)CC(=O)*; Aib = CC(C)(N)C(=O)O; βAla = NCCC(=O)O

Assays:
[1] = molecular target: T1, PSMA-expressing C4-2 cells (Homo sapiens, UniProt Q04609); assay: FACS binding assay (competition with 50 nM PSM-0183); conditions: FACS binding, PSMA-expressing C4-2 cells; pIC50 category; read-out: pIC50 [C4-2] CAT (converted)
T1 construct: PSMA-expressing C4-2 cells (ATCC, Cat. No. CRL-3314) were cultured in RPMI-1640; host or cells: C4-2 cells
T1 sequence (Q04609 whole entry): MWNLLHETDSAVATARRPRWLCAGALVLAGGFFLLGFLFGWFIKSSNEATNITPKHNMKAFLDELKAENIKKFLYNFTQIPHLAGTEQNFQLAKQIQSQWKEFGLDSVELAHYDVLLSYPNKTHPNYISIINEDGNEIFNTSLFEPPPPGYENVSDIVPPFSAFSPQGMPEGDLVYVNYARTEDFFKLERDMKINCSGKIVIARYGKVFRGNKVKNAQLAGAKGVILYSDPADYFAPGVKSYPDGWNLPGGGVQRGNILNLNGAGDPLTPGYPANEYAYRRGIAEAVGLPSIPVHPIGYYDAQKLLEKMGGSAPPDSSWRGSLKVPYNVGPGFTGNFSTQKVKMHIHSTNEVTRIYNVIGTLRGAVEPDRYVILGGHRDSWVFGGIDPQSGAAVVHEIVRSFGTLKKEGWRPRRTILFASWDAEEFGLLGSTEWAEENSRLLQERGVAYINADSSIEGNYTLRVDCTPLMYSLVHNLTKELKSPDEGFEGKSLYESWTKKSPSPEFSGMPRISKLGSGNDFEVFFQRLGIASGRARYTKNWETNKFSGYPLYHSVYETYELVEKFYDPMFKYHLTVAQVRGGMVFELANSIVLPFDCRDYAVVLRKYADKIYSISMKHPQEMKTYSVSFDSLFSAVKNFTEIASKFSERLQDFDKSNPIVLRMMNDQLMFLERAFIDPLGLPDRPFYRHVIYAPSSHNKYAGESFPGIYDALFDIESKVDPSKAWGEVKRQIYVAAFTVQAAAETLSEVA
Method in brief: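 Competition format: fluorescent tracer PSM-0183 (50 nM) displaced from PSMA on C4-2 cells by a test compound titration over 1 h at 4 °C. Bound tracer was quantified as flow-cytometric AF488 median fluorescence after washing. Four-parameter logistic fits of MFI data gave IC50 and pIC50.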

[2] = molecular target: T2, Fc-fusion protein of human PSMA (hPSMA-Fc) (Homo sapiens, UniProt Q04609); assay: Surface plasmon resonance assay (Biacore T200, single cycle kinetic); assay type: binding; conditions: PSMA SPR assay, hPSMA-Fc, 25° C.; pKD category; read-out: pKD CAT (converted)
T2 construct: purchased Acro Biosystems PSA-H5264
T2 sequence (Q04609 44-750 limits assumed): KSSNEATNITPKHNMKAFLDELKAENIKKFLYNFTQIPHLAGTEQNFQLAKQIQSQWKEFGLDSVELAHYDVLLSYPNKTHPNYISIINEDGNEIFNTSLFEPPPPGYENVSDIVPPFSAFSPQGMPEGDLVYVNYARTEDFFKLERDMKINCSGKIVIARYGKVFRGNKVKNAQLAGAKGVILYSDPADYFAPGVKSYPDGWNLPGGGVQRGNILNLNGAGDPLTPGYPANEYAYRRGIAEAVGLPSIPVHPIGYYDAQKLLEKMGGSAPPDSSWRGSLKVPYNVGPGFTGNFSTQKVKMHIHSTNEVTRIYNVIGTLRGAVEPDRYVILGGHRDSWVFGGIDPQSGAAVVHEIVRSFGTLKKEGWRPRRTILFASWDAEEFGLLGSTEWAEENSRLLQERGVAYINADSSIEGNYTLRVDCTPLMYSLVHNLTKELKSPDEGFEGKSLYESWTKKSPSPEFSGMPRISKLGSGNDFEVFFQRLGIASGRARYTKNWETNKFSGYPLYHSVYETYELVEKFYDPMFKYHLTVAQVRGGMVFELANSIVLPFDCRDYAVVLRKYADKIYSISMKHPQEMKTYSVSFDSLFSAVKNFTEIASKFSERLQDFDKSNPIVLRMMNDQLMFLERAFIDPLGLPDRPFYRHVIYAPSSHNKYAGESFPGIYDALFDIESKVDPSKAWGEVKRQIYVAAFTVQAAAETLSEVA
Method in brief: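 KD, expressed as pKD, came from 1:1 Langmuir fits of reference- and buffer-blank-subtracted SPR data. The runs were single-cycle kinetics at 25° C in HBST/0.1% DMSO over human PSMA-Fc, captured to ~1000 RU on a peptide-coated CM5 surface and regenerated with 10 mM glycine pH 1.5.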

Row | IC50 [1] | Kd [2] | Structure (SMILES)
1 | 200 to 1260 nM | 126 to 501 nM | C[C@@H](O)[C@H](NC(=O)[C@@H](NC(=O)[C@@H]1CSSC[C@H](NC(=O)[C@H](Cc2ccc(Cl)cc2)NC(=O)[C@](C)(CC(=O)O)NC(=O)[C@@H](NC(=O)CC2CCN(C(=O)CN3CCN(CC(=O)O)CCN(CC(=O)O)CCN(CC(=O)O)CC3)CC2)[C@@H](C)O)C(=O)N[C@@H](CCCCN)C(=O)N[C@@H](CCCNC(=N)N)C(=O)NC(C)(C)C(=O)N[C@@H](CC(N)=O)C(=O)N1)C(C)(C)C)C(N)=O [PSM-0346, DOTA-Cmp-Thr-Amd-Pcf-[Cys-Lys-Arg-Aib-Asn-Cys]-Tle-Thr-NH2] ({DOTA}-[X1]T[αMeD][Phe(4-Cl)]CKR[Aib]NC[Tle]T-NH2; disulfide 5-10)
2 | < 200 nM | < 12.6 nM | CNC(=N)NCCC[C@@H]1NC(=O)[C@H](CCCCN)NC(=O)[C@@H](NC(=O)[C@H](Cc2ccc(Cl)cc2)NC(=O)C(C)(C)NC(=O)[C@@H](NC(=O)CC2CCN(C(=O)CN3CCN(CC(=O)O)CCN(CC(=O)O)CCN(CC(=O)O)CC3)CC2)[C@@H](C)O)CSSC[C@@H](C(=O)N[C@H](C(=O)N[C@H](C(N)=O)[C@@H](C)O)C(C)(C)C)NC(=O)[C@H](CC(N)=O)NC(=O)C(C)(C)NC1=O [PSM-0351, DOTA-Cmp-Thr-Aib-Pcf-[Cys-Lys-Arg(Me)-Aib-Asn-Cys]-Tle-Thr-NH2] ({DOTA}-[X1]T[Aib][Phe(4-Cl)]CK[Arg(Me)][Aib]NC[Tle]T-NH2; disulfide 5-10)
3 | 200 to 1260 nM | < 12.6 nM | C/N=C(/NC)N(C)CCC[C@@H]1NC(=O)[C@H](CCCCNC)NC(=O)[C@@H](NC(=O)[C@H](Cc2ccc(Cl)cc2)NC(=O)C(C)(C)NC(=O)[C@@H](NC(=O)CC2CCN(C(=O)CN3CCN(CC(=O)O)CCN(CC(=O)O)CCN(CC(=O)O)CC3)CC2)[C@@H](C)O)CSSC[C@@H](C(=O)N[C@H](C(=O)N[C@H](C(N)=O)[C@@H](C)O)C(C)(C)C)NC(=O)[C@H](CC(N)=O)NC(=O)C(C)(C)NC1=O [PSM-0355, DOTA-Cmp-Thr-Aib-Pcf-[Cys-Lys(Me)-RMe3-Aib-Asn-Cys]-Tle-Thr-NH2] ({DOTA}-[X1]T[Aib][Phe(4-Cl)]C[Lys(Me)][X13][Aib]NC[Tle]T-NH2; disulfide 5-10)
4 | 200 to 1260 nM | 12.6 to 126 nM | CC[C@H](C)[C@H](NC(=O)CC1CCN(C(=O)CN2CCN(CC(=O)O)CCN(CC(=O)O)CCN(CC(=O)O)CC2)CC1)C(=O)NC(C)(C)C(=O)N[C@@H](Cc1ccccc1)C(=O)N[C@H]1CSSC[C@@H](C(=O)N[C@H](C(=O)N[C@H](C(N)=O)[C@@H](C)O)C(C)(C)C)NC(=O)[C@H](CC(N)=O)NC(=O)C(C)(C)NC(=O)[C@H](CCCNC(=N)N)NC(=O)[C@H](CCCCN)NC1=O [PSM-0357, DOTA-Cmp-Ile-Aib-Phe-[Cys-Lys-Arg-Aib-Asn-Cys]-Tle-Thr-NH2] ({DOTA}-[X1]I[Aib]FCKR[Aib]NC[Tle]T-NH2; disulfide 5-10)
5 | > 3160 nM | > 501 nM | C[C@@H](O)[C@H](NC(=O)[C@@H](NC(=O)[C@@H]1CSSC[C@H](NC(=O)[C@H](Cc2c[nH]c3ccc(Br)cc23)NC(=O)C(C)(C)NC(=O)[C@@H](NC(=O)CC2CCN(C(=O)CN3CCN(CC(=O)O)CCN(CC(=O)O)CCN(CC(=O)O)CC3)CC2)[C@@H](C)O)C(=O)N[C@@H](CCCCN)C(=O)N[C@@H](CCCNC(N)=O)C(=O)NC(C)(C)C(=O)N[C@@H](CC(N)=O)C(=O)N1)C(C)(C)C)C(N)=O [PSM-0359, DOTA-Cmp-Thr-Aib-5Brw-[Cys-Lys-Cit-Aib-Asn-Cys]-Tle-Thr-NH2] ({DOTA}-[X1]T[Aib][Trp(5-Br)]CK[Cit][Aib]NC[Tle]T-NH2; disulfide 5-10)

Further lines, the compound ahead of its results:

Row | Structure (SMILES) | IC50 [1] | Kd [2]
6 | CC(=O)N[C@H](C(=O)NC(C)(C)C(=O)N[C@@H](Cc1ccccc1)C(=O)N[C@@H]1CSSC[C@@H](C(=O)N[C@H](C(=O)N[C@H](C(N)=O)[C@@H](C)O)C(C)(C)C)NC(=O)[C@H](CC(N)=O)NC(=O)C(C)(C)NC(=O)[C@H](CCCNC(=N)N)NC(=O)[C@H](CCCCN)NC1=O)[C@@H](C)O [PSM-0348, Ac-Thr-Aib-Phe-[cys-Lys-Arg-Aib-Asn-Cys]-Tle-Thr-NH2] (Ac-T[Aib]F[dC]KR[Aib]NC[Tle]T-NH2; disulfide 4-9) | > 3160 nM | > 501 nM
7 | CC(=O)NC(C)(C)C(=O)N[C@@H](Cc1ccc(Cl)cc1)C(=O)N[C@H]1CSSC[C@@H](C(=O)N[C@H](C(=O)N[C@H](C(=O)N2CCC(CC(=O)N[C@H](CCCCNC(=O)CN3CCN(CC(=O)O)CCN(CC(=O)O)CCN(CC(=O)O)CC3)C(N)=O)CC2)[C@@H](C)O)C(C)(C)C)NC(=O)[C@H](CC(N)=O)NC(=O)C(C)(C)NC(=O)[C@H](CCCNC(=N)N)NC(=O)[C@H](CCCCN)NC1=O [PSM-0349, Ac-Aib-Pcf-[Cys-Lys-Arg-Aib-Asn-Cys]-Tle-Thr-Cmp-lys(DOTA)-NH2] (Ac-[Aib][Phe(4-Cl)]CKR[Aib]NC[Tle]T[X1][dK](DOTA)-NH2; disulfide 3-8) | < 200 nM | < 12.6 nM
8 | CC(=O)N[C@H](C(=O)NC(C)(C)C(=O)N[C@@H](Cc1ccccc1)C(=O)N[C@H]1CSSC[C@@H](C(=O)N[C@@H](C(=O)N[C@H](C(N)=O)[C@@H](C)O)C(C)(C)C)NC(=O)[C@H](CC(N)=O)NC(=O)C(C)(C)NC(=O)[C@H](CCCNC(=N)N)NC(=O)[C@H](CCCCN)NC1=O)[C@@H](C)O [PSM-0350, Ac-Thr-Aib-Phe-[Cys-Lys-Arg-Aib-Asn-Cys]-leu-Thr-NH2] (Ac-T[Aib]FCKR[Aib]NC[dTle]T-NH2; disulfide 4-9) | 200 to 1260 nM | 126 to 501 nM
9 | C[C@@H](O)[C@H](NC(=O)[C@@H](NC(=O)[C@@H]1CSSC[C@H](NC(=O)[C@H](Cc2ccc(Cl)cc2)NC(=O)C(C)(C)NC(=O)CCNC(=O)CN2CCN(CC(=O)O)CCN(CC(=O)O)CCN(CC(=O)O)CC2)C(=O)N[C@@H](CCCCN)C(=O)N[C@@H](CCCNC(=N)N)C(=O)NC(C)(C)C(=O)N[C@@H](CC(N)=O)C(=O)N1)C(C)(C)C)C(N)=O [PSM-0352, DOTA-Bal-Aib-Pcf-[Cys-Lys-Arg-Aib-Asn-Cys]-Tle-Thr-NH2] ({DOTA-βAla}-[Aib][Phe(4-Cl)]CKR[Aib]NC[Tle]T-NH2; disulfide 3-8) | < 200 nM | < 12.6 nM
10 | CC(C)CC(=O)NC(C)(C)C(=O)N[C@@H](Cc1ccc(Cl)cc1)C(=O)N[C@H]1CSSC[C@@H](C(=O)N[C@H](C(=O)N[C@H](C(N)=O)[C@@H](C)O)C(C)(C)C)NC(=O)[C@H](CC(N)=O)NC(=O)[C@H](CCCCNC(=O)CN2CCC(NC(=O)CN3CCN(CC(=O)O)CCN(CC(=O)O)CCN(CC(=O)O)CC3)CC2)NC(=O)[C@H](CCCNC(=N)N)NC(=O)[C@H](CCCCN)NC1=O [PSM-0353, Iva-Aib-Pcf-[Cys-Lys-Arg-Lys(DOTA-APAc)-Asn-Cys]-Tle-Thr-NH2] (Isovaleryl-[Aib][Phe(4-Cl)]CKRK(X7)NC[Tle]T-NH2; disulfide 3-8) | < 200 nM | < 12.6 nM
11 | CNCCCC[C@@H]1NC(=O)[C@@H](NC(=O)[C@H](Cc2cccc(Cl)c2)NC(=O)C(C)(C)NC(=O)[C@@H](NC(=O)CC2CCN(C(=O)CN3CCN(CC(=O)O)CCN(CC(=O)O)CCN(CC(=O)O)CC3)CC2)[C@@H](C)O)CSSC[C@@H](C(=O)N[C@H](C(N)=O)C(C)(C)C)NC(=O)[C@H](CC(N)=O)NC(=O)C(C)(C)NC(=O)[C@H](CCCNC(=N)NC)NC1=O [PSM-0354, DOTA-Cmp-Thr-Aib-Mcf-[Cys-Lys(Me)-Arg(Me)-Aib-Asn-Cys]-Tle-NH2] ({DOTA}-[X1]T[Aib][Phe(3-Cl)]C[Lys(Me)][Arg(Me)][Aib]NC[Tle]-NH2; disulfide 5-10) | < 200 nM | 12.6 to 126 nM
